Values of other authors as cited in patent US9221029B2, “Automatic system for synthesizing 123I-MIBG and automatic device for synthesizing and dispensing 123I-MIBG comprising the same” (Institute of Nuclear Energy Research Atomic Energy Council, …, priority 2013, dated 2015).
Like-named read-outs stand apart in the source and are kept apart here. Values belong to the compound of their own block, whether it stands above or below them.

Assays:
[1] = tested on: neuroblast; conditions: after intravenous injection
[2] = tested on: neuroblastoma; conditions: 21 neuroblastoma patients; especially at bones
[3] = tested on: tumors (neuroblastoma cells); conditions: after false-positive and false-negative imaging results are ruled out
[4] = used for diagnosis
[5] = despite the use of oral potassium iodide (KI)
[6] = ranging from 15 minutes to 48 hours
[7] = tested on: neuroblastoma; conditions: in vivo

gathered in neuroblast [1]: 90%
SMILES: N=C(N)NCc1cccc(I)c1 [MIBG, meta-iodobenzylguanidine]
sensitivity of imaging compared with FDG-PET [2]: higher sensitivity

patients with accumulated ^123I-MIBG in salivary glands [4]: 92-100%
SMILES: N=C(N)NCc1cccc([123I])c1 [^123I-MIBG, iodine-123 meta-iodobenzylguanidine]
specifically bound to tumors [3]: ~100%

SMILES: N=C(N)NCc1cccc([131I])c1 [^131I-MIBG]
side effects of therapy [5]: hypothyroidism still occurs
excreted out of the body through urine (24 hours after injection): 57%
excreted out of the body through urine (48 hours after injection): 70%
still exists in the blood (one hour after injection, neuroblastoma patients): ≤ 10%
saliva-to-plasma ratio [6]: greater than 1.0
treatment effective rate on neuroblastoma [7]: 30-40%
